Like-named read-outs stand apart in the source and are kept apart here.
What was measured:
[1] = Pharmacokinetic evaluation in ICR mice after intravenous injection; type: in vivo; conditions: mouse; ICR male mice, 1.0 mg/kg intravenous, plasma
Protocol: A test compound (1.0 mg/kg) was administered to fasted ICR male mice via intravenous injection, and blood samples were collected at time points of 0.08, 0.25, 0.5, 1, 2, 4, 6, 8 and 24 h after the administration. Plasma sample was separated by centrifugation (8000 rpm) and stored at −80° C. until the sample was analyzed. Concentrations of the test compound in the plasma were determined by HPLC-MS/MS: the plasma was dispensed into appropriate tubes containing internal standard and methanol or acetonitrile. The tubes were mixed vigorously for 3 minutes to achieve deproteinization and then centrifuged at 8000 rpm for 5 minutes. The supernatant was transferred to an autosampler vial, injected into the chromatographic system, and quantified on MS/MS detector. Pharmacokinetic parameters including AUC0-4, Cmax, Tmax, t1/2, MRT, Cl and Vd were calculated using WinNonlin 6.3 software. Table 3 summarizes key PK parameters for test compounds (AUC(0-t): the area under the curve from time 0 to time t; AUC(0-∞): the area under the curve from time 0 to infinity; t1/2: Half-life; CL: clearance; C0: the concentration of drug in blood if the drug molecules enter the circulation and are distributed immediately (i.e., at time 0)).

CD73 protein = biological target: T1, CD73 protein (Homo sapiens, UniProt P21589); assay: CD73 enzyme inhibition assay (Malachite Green Phosphate Detection Kit); type: biochemical; conditions: for IC50: Tris-HCl pH 7.3, read-out: Potency (IC50 class) in CD73 enzyme assay; for inhibitory activity in the CD73 enzyme assay: result in words
T1 construct: purchased Novoprotein C446
T1 sequence (P21589 27-549): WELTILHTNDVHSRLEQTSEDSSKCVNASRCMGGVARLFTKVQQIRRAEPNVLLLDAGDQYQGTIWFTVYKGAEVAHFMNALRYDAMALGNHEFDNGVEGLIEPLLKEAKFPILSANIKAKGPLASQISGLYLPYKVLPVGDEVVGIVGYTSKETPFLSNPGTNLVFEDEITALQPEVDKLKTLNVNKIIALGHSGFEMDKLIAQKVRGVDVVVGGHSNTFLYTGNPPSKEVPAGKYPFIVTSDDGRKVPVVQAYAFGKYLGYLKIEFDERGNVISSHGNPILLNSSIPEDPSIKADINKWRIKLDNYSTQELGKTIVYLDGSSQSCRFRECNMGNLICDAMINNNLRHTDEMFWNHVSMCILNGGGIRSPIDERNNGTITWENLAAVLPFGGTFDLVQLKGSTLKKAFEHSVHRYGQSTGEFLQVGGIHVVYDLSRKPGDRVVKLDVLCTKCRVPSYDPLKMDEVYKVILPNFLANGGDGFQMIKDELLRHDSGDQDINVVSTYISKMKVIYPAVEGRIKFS
Protocol: To evaluate the inhibitory effect of selected compounds on CD73, Malachite Green Phosphate Detection Kit (R&D, Cat #DY996) was used. Briefly, compounds were dissolved and diluted to the desired concentration using phosphate-free buffer (Tris-HCl, pH 7.3). 25 μL of the compound solution was added to an equal volume of CD73 protein solution (2×concentration, 0.5 μg/mL, Novoprotein, Cat #C446), followed by a 5-minute incubation at room temperature. 10 μL of Malachite Green Reagent A was added to each well, mixed thoroughly and incubated for 10 minutes at room temperature. 10 μL of Malachite Green Reagent B was then added to each well, mixed thoroughly and incubated for 20 minutes at room temperature. Finally, the optical density of each well was determined using a microplate reader set to 620 nm.

[2] = biological target: T2, Recombinant human 5′-nucleotidase (hCD73) (Homo sapiens, UniProt P21589); assay: CD73 enzyme inhibition assay (recombinant hCD73, AMP substrate, phosphate detection); type: biochemical; conditions: 37° C. 20 min, absorbance 635 nm
T2 sequence (P21589 27-549): T1 sequence (P21589 27-549)
Protocol: Test compound solution preparation: Stock solution of a test compound was prepared in DMSO at 10 mM concentration. A series of preset 10-concentration solutions of a test compound were prepared by diluting the stock solution in 5-fold gradient dilution with DMSO.
Assay buffer (1×): […] Tris, 25 mM NaCl, 1 mM MgCl2, pH 7.5, 0.005% Tween-20 (freshly prepared, and ready for use).
An aliquot of 0.25 μL of compound solution or DMSO (blank control) was added to each test well of a micro well plate. Recombinant human 5′-nucleotidase (hCD73) was diluted to 1 nM in assay buffer; and an aliquot of 25 μL hCD73 (1 nM) solution was added to the corresponding wells of the plate. The contents of the well were well-mixed, and the plate was covered with sealing film, centrifuged at 1000 rpm for 30 sec., followed by incubation at room temperature for 15 min. AMP, the substrate, was diluted to 60 μM concentration in the assay buffer. To each reaction well was added 25 μL of AMP solution. After mixing well, the plate was covered with sealing film, centrifuged at 1000 rpm for 30 sec., and incubated at 37° C. for 20 min. The absorbance signal (end point) was measured on SPARK plate reader at 635 nm (See PiColorLock™ Gold Phosphate Detection System (Abcam) test kit for reference).
The reaction wells containing CD73 enzyme, substrate AMP and DMSO (no compound) were used as positive control, and the reaction wells containing substrate AMP and DMSO but no CD73 enzyme were used as negative control. The percent (%) inhibition at each concentration of compound was calculated based on and relative to the signal in the High and Low control wells contained within each assay plate. The High control wells were considered as 0% inhibition, and the low control wells, which didn't contain any compound but rather DMSO (final concentration=0.5%), as 100% inhibition. IC50 values were obtained using GraphPad Prism software.

human T cell = assay: CD73 cellular assay (T cell stimulation assay: CellTiter-Glo proliferation and IFN-γ ELISA); type: cell-based; conditions: human T cells, anti-CD3/CD28, AMP + EHNA, 72 hours
Protocol: Day 2, human T cell seeding: (a) washing the coated plate (from Day 1) with sterilized PBS buffer (2×100 uL); (b) re-suspending T cells and adjusting cell density to 0.5×10^6 cells/mL with growth media (X-VIVO 15+1% Pen/strep+1% glutamine), and seeding 100 μL/well (50,000 cells/well) in 96-well plates; (c) diluting CD28 antibody for 8× working concentration (8 μg/mL) with growth media, giving 1 μg/mL of the final concentration, followed by addition of CD28 antibody (25 μL) to cell plate; incubating the plates under 5% CO2 at 37° C. for 60 min; (d) adding compound (25 μL, 8×dilution with growth media) to cell plate, and incubating the plates under 5% CO2 at 37° C. for 60 min; (e) adding AMP (25 μL) and EHNA (25 μL, 8×dilution with growth media) to cell plate; (f) incubating the plates under 5% CO2 at 37° C. for 72 hours.
Day 5, collecting cell growth media and testing cell proliferation: (a) centrifuging the cell plate (1,000 rpm) for 5 min; (b) harvesting 150 μL of the cell culture media from each well to 96 well plate, followed by measurement of IFN-r expression by ELISA test; (c) taking a portion of the cell culture supernatant for cytokine analysis, removing the remaining supernatant, followed by addition of fresh growth media (X-VIVO 15+1% Pen/strep+1% glutamine, 100 μL); (d) adding Celltiter-Glo solution (50 μL) into each well for the measurement of cell proliferation by: (e) incubating the plates at room temperature for 10 min on a shaker; (f) transferring 100 μL solution into 96-well white plate and taking the readout of the Celltiter-Glo data using a TECAN Reader.

clearance [1] [L/h/kg]	IC50 (CD73 protein) [nM]	IC50 [2] [nM]	Structure (SMILES)	other results
0.006			O=P(O)(O)CP(=O)(O)OC[C@H]1O[C@@H](n2cnc3c(N4CC5(CCCCCC5)c5ccccc54)nc(Cl)nc32)[C@@H](O)C1O (stereo partly drawn) [d-22]	
	10 to 100		CC1(C)[C@@H]2CC[C@@]1(C)C(OC(=O)Nc1nc(Cl)nc3c1ncn3[C@@H]1O[C@H](COP(=O)(O)CP(=O)(O)O)C(O)C1O)C2 (stereo partly drawn) [Compound 23]	
	< 10		O=P(O)(O)CP(=O)(O)OC[C@H]1O[C@@H](n2cnc3c(N4C5CCC4CC(O)C5)nc(Cl)nc32)C(O)C1O (stereo partly drawn) [Compound 51]	
			O=P(O)(O)CP(=O)(O)CC[C@H]1O[C@@H](n2cnc3c(NCc4ccccc4)nc(Cl)nc32)C(O)C1O (stereo partly drawn) [a-1]	inhibitory activity in the CD73 enzyme assay (CD73 protein): showed inhibitory activity
	10 to 100		O=C(CC12CC3CC(CC(C3)C1)C2)Nc1nc(Cl)nc2c1ncn2[C@@H]1O[C@H](COP(=O)(O)CP(=O)(O)O)C(O)C1O (stereo partly drawn) [Compound 16]	
	< 10		O=P(O)(O)CP(=O)(O)OC[C@H]1O[C@@H](n2cnc3c(NCc4ccc5ccccc5c4)nc(Cl)nc32)C(O)C1O (stereo partly drawn) [Compound 7]	
0.153			O=P(O)(O)CP(=O)(O)OC[C@H]1O[C@@H](n2cnc3c(N4CCC5(CCCc6ccccc65)C4)nc(Cl)nc32)[C@@H](O)C1O (stereo partly drawn) [d-6]	
0.102		0.4	O=P(O)(O)CP(=O)(O)OC[C@H]1O[C@@H](n2cnc3c(N4CC5(CCCc6ccccc65)C4)nc(Cl)nc32)[C@@H](O)C1O (stereo partly drawn) [d-12]	
		1.39	O=P(O)(O)CP(=O)(O)OC[C@H]1O[C@@H](n2cnc3c(N4CC(c5ccccc5)(c5ccccc5)C4)nc(Cl)nc32)C(O)C1O (stereo partly drawn) [d-35]	
		1.92	O=P(O)(O)CP(=O)(O)OC[C@H]1O[C@@H](n2cnc3c(N4CC(c5ccccc5)c5ccccc54)nc(Cl)nc32)C(O)C1O (stereo partly drawn) [Compound d-38]	
		0.75	O=P(O)(O)CP(=O)(O)OC[C@H]1O[C@@H](n2cnc3c(N4CCC5(CCc6ccccc65)C4)nc(Cl)nc32)C(O)C1O (stereo partly drawn) [d-8]	
			O=P(O)(O)CP(=O)(O)CC[C@H]1O[C@@H](n2cnc3c(N4CCC5(CCCCC5)C4)nc(Cl)nc32)C(O)C1O (stereo partly drawn) [a-31]	inhibitory activity in the CD73 enzyme assay (CD73 protein): showed inhibitory activity
0.005		1.8	O=P(O)(O)CP(=O)(O)OC[C@H]1O[C@@H](n2cnc3c(N4CC5(CCCCC5)c5ccccc54)nc(Cl)nc32)[C@@H](O)C1O (stereo partly drawn) [d-7]	
	< 10		C[C@]12C[C@@H]3C[C@](C)(C1)C[C@@](Nc1nc(Cl)nc4c1ncn4[C@@H]1O[C@H](COP(=O)(O)CP(=O)(O)O)C(O)C1O)(C3)C2 (stereo partly drawn) [Compound 9]	
	< 10		O=P(O)(O)CP(=O)(O)OC[C@H]1O[C@@H](n2cnc3c(NCc4ccccc4)nc(Cl)nc32)C(O)C1O (stereo partly drawn) [Compound 1]	
0.003		1.5	O=P(O)(O)CP(=O)(O)OC[C@H]1O[C@@H](n2cnc3c(N4CC5(CCCC5)c5ccccc54)nc(Cl)nc32)[C@@H](O)C1O (stereo partly drawn) [d-13]	
	< 10		O=P(O)(O)CP(=O)(O)OC[C@H]1O[C@@H](n2cnc3c(N4CCC5(CCCCC5)C4)nc(Cl)nc32)C(O)C1O (stereo partly drawn) [Compound 31]	
0.045		0.73	O=P(O)(O)CP(=O)(O)OC[C@H]1O[C@@H](n2cnc3c(N4CC5(Cc6ccccc6C5)C4)nc(Cl)nc32)[C@@H](O)C1O (stereo partly drawn) [d-9]	
	< 10		O=P(O)(O)CP(=O)(O)OC[C@H]1O[C@@H](n2cnc3c(NC45CC6CC(CC(C6)C4)C5)nc(Cl)nc32)C(O)C1O (stereo partly drawn) [Compound 22]	
		1.86	O=P(O)(O)CP(=O)(O)OC[C@H]1O[C@@H](n2cnc3c(N4CC(c5ccccc5)C(c5ccccc5)C4)nc(Cl)nc32)C(O)C1O (stereo partly drawn) [d-36]	
	> 100		CCCCCCCCCCCCN(CCCCCCCCCCCC)c1nc(Cl)nc2c1ncn2[C@@H]1O[C@H](COP(=O)(O)CP(=O)(O)O)C(O)C1O (stereo partly drawn) [Compound 19]	
	< 10		O=P(O)(O)CP(=O)(O)OC[C@H]1O[C@@H](n2cnc3c(NCc4cccc5ccccc45)nc(Cl)nc32)C(O)C1O (stereo partly drawn) [Compound 6]	
0.137		1.42	O=P(O)(O)CP(=O)(O)OC[C@H]1O[C@@H](n2cnc3c(N4CCC5(CC4)Cc4ccccc4C5)nc(Cl)nc32)[C@@H](O)C1O (stereo partly drawn) [d-21]	
0.008		1.29	O=P(O)(O)CP(=O)(O)OC[C@H]1O[C@@H](n2cnc3c(N4CC5(CCC5)c5ccccc54)nc(Cl)nc32)[C@@H](O)C1O (stereo partly drawn) [d-20]	
	< 10		CCCCCCCCCCCCOC(=O)Nc1nc(Cl)nc2c1ncn2[C@@H]1O[C@H](COP(=O)(O)CP(=O)(O)O)C(O)C1O (stereo partly drawn) [Compound 15]	
0.042			C[C@H](Nc1cc(Cl)nc2c1cnn2[C@@H]1O[C@H](COP(=O)(O)CP(=O)(O)O)[C@@H](O)[C@H]1O)c1ccccc1F [Compound a, AB680, reference compound]	
		1.76	O=P(O)(O)CP(=O)(O)OC[C@H]1O[C@@H](n2cnc3c(N4CCC(c5ccccc5)(c5ccccc5)C4)nc(Cl)nc32)C(O)C1O (stereo partly drawn) [d-33]	EC50 (human T cell; read-out: EC50 CTG (CellTiter-Glo, cell proliferation)): 4.07 nM; EC50 (human T cell; read-out: EC50 IFN-γ (ELISA, indicator for T-cell activity)): 2.53 nM
			C[C@]12C[C@@H]3C[C@](C)(C1)C[C@@](Nc1nc(Cl)nc4c1ncn4[C@@H]1O[C@H](CCP(=O)(O)CP(=O)(O)O)C(O)C1O)(C3)C2 (stereo partly drawn) [a-9]	inhibitory activity in the CD73 enzyme assay (CD73 protein): showed inhibitory activity
